Laboratory results as given in US20240294522A1 (Lead Discovery Center GmbH, priority 2021, published 2024).

Tests used:
GRK5 = target: T1, GRK5 (Homo sapiens, UniProt P34947); test: Lance Kinase Activity Assay, GRK5; conditions: biochemical Lance kinase activity assay; class symbols A-F; read-out: GRK5 LANCE Assay (IC-50)
T1 construct: purchased Thermo Scientific
Outline: (§1)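 IC50s from sigmoidal dose-response over 0.0025-10 μM compound, with phosphorylated ULight substrate detected by Eu anti-phospho antibody FRET after EDTA quench.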

GRK2 = target: T2, GRK2 (Homo sapiens, UniProt P25098); test: Lance Kinase Activity Assay, GRK2; conditions: biochemical Lance kinase activity assay; class symbols A-F; read-out: GRK2 LANCE Assay (IC-50)
T2 construct: purchased Thermo Scientific
T2 sequence (P25098 1-689): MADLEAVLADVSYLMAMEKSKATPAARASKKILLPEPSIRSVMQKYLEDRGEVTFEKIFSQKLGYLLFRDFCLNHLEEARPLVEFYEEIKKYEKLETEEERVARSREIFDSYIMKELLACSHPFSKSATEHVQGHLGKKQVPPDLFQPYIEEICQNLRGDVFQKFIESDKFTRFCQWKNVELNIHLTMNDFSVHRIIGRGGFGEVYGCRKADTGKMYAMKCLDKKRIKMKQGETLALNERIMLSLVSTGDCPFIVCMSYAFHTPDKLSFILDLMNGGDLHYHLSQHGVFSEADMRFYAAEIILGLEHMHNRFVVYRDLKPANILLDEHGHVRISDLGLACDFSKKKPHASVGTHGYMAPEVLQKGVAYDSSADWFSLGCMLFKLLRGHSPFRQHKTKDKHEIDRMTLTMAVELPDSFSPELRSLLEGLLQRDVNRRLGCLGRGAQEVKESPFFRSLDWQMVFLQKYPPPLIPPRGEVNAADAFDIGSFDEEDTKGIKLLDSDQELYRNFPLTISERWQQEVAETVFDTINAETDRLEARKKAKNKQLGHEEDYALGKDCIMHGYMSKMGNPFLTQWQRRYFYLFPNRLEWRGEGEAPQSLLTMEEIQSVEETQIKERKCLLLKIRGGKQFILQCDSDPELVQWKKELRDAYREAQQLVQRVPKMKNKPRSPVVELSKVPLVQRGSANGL
Outline: as §1

T1 sequence (P34947 whole entry): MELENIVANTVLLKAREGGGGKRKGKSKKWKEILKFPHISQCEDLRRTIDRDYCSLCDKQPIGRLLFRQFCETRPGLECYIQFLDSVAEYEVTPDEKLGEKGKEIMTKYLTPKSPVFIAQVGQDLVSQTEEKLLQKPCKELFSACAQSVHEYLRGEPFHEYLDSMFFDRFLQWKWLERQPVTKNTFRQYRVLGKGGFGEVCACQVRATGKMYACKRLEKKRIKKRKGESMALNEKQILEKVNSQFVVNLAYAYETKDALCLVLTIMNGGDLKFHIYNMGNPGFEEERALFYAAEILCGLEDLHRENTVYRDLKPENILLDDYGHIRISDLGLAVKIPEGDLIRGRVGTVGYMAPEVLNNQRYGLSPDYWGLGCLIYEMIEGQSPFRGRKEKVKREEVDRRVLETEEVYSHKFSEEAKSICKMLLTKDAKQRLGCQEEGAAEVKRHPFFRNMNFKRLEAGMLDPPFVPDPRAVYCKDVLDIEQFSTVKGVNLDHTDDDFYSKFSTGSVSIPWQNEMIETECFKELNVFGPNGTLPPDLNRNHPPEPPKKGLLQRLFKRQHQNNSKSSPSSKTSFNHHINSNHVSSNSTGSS

Row | SMILES | IC50 (GRK5) [nM] | IC50 (GRK2) [nM]
1 | N#C/C(=C\c1c[nH]c2ncccc12)C(=O)NCc1ccccc1C#N [Example 35, (E)-2-cyano-N-(2-cyanobenzyl)-3-(1H-pyrrolo[2,3-b]pyridin-3-yl)acrylamide] | 100 to 500 | 1000 to 10000
2 | C[C@@H](NC(=O)/C(C#N)=C/c1c[nH]c2ncc(-c3cnn(C)c3)cc12)c1ccc(F)cc1 [Example 93, (R,E)-2-cyano-N-(1-(4-fluorophenyl)ethyl)-3-(5-(1-methyl-1H-pyrazol-4-yl)-1H-pyrrolo[2,3-b]pyridin-3-yl)acrylamide] | ≤ 50 | 100 to 500
3 | N#C/C(=C\c1c[nH]c2ncccc12)C(=O)N[C@H](CCO)c1ccccc1 [Example 40, (R,E)-2-cyano-N-(3-hydroxy-1-phenylpropyl)-3-(1H-pyrrolo[2,3-b]pyridin-3-yl)acrylamide] | 100 to 500 | 100 to 500
4 | COc1ccc([C@@H](C)NC(=O)/C(C#N)=C/c2c[nH]c3ncc(-c4cn(C)cn4)cc23)cc1OC [Example 166, (R,E)-2-cyano-N-(1-(3,4-dimethoxyphenyl)ethyl)-3-(5-(1-methyl-1H-imidazol-4-yl)-1H-pyrrolo[2,3-b]pyridin-3-yl)acrylamide] | ≤ 50 | 1000 to 10000
5 | COc1ccc([C@@H](C)NC(=O)/C=C/c2c[nH]c3nccc(-c4cccc(CN(C)C)c4)c23)cc1OC [Example 224, (R,E)-N-(1-(3,4-dimethoxyphenyl)ethyl)-3-(4-(3-((dimethylamino)methyl)phenyl)-1H-pyrrolo[2,3-b]pyridin-3-yl)acrylamide] | 100 to 500 | > 10000
6 | COc1ccc([C@@H](C)NC(=O)/C=C/c2c[nH]c3ncc(-c4cccnc4)cc23)cc1OC [Example 186, (R,E)-N-(1-(3,4-dimethoxyphenyl)ethyl)-3-(5-(pyridin-3-yl)-1H-pyrrolo[2,3-b]pyridin-3-yl)acrylamide] | ≤ 50 | 1000 to 10000
7 | COc1ccc([C@@H](C)NC(=O)/C=C/c2c[nH]c3ncc(-c4ccc(C(N)=O)cc4)cc23)cc1OC [Example 200, (R,E)-4-(3-(3-((1-(3,4-dimethoxyphenyl)ethyl)amino)-3-oxoprop-1-en-1-yl)-1H-pyrrolo[2,3-b]pyridin-5-yl)benzamide] | ≤ 50 | 1000 to 10000
8 | COc1ccc([C@@H](C)NC(=O)/C=C/c2c[nH]c3ncc(-c4cccc(CS(C)(=O)=O)c4)cc23)cc1OC [Example 217, (R,E)-N-(1-(3,4-dimethoxyphenyl)ethyl)-3-(5-(3-((methylsulfonyl)methyl)phenyl)-1H-pyrrolo[2,3-b]pyridin-3-yl)acrylamide] | ≤ 50 | 1000 to 10000
9 | C[C@@H](NC(=O)/C(C#N)=C/c1c[nH]c2ncccc12)c1ccc(Cl)cc1 [Example 70, (R,E)-N-(1-(4-chlorophenyl)ethyl)-2-cyano-3-(1H-pyrrolo[2,3-b]pyridin-3-yl)acrylamide] | 100 to 500 | 500 to 1000
10 | COc1ccc([C@@H](C)NC(=O)/C=C/c2c[nH]c3ncc(-c4ccccc4CN4CCOCC4)cc23)cc1OC [Example 206, (R,E)-N-(1-(3,4-dimethoxyphenyl)ethyl)-3-(5-(2-(morpholinomethyl)phenyl)-1H-pyrrolo[2,3-b]pyridin-3-yl)acrylamide] | 1000 to 10000 | > 10000
11 | COc1ccc([C@@H](C)NC(=O)/C(C#N)=C/c2c[nH]c3ncc(-c4ccccc4OC)cc23)cc1OC [Example 124] | 100 to 500 | > 10000
12 | COc1ccc([C@@H](C)NC(=O)/C(C#N)=C/c2c[nH]c3ncc(-c4ccc(F)cc4OC)cc23)cc1OC [Example 123] | 100 to 500 | > 10000
13 | COc1ccc([C@@H](C)NC(=O)/C=C/c2c[nH]c3ncc(-c4ccccc4S(C)(=O)=O)cc23)cc1OC [Example 222, (R,E)-N-(1-(3,4-dimethoxyphenyl)ethyl)-3-(5-(2-(methylsulfonyl)phenyl)-1H-pyrrolo[2,3-b]pyridin-3-yl)acrylamide] | 1000 to 10000 | > 10000
14 | COc1ccc([C@@H](C)NC(=O)/C(C#N)=C/c2c[nH]c3ncc(-c4ccc(OCCCN(C)C)cc4)cc23)cc1OC [Example 138] | ≤ 50 | 500 to 1000
15 | C[C@@H](NC(=O)/C(C#N)=C/c1c[nH]c2ncccc12)c1cccc(F)c1 [Example 1, (R,E)-2-cyano-N-(1-(3-fluorophenyl)ethyl)-3-(1H-pyrrolo[2,3-b]pyridin-3-yl)acrylamide] | 100 to 500 | 100 to 500
16 | COc1ccc([C@@H](C)NC(=O)/C=C/c2c[nH]c3ncc(-c4ccc(CN(C)C)cc4)cc23)cc1OC [Example 184] | 50 to 100 | > 10000
17 | COc1ccc([C@@H](C)NC(=O)/C=C/c2c[nH]c3ncc(-c4cnn(C)c4C#N)cc23)cc1OC [Example 211, (R,E)-3-(5-(5-cyano-1-methyl-1H-pyrazol-4-yl)-1H-pyrrolo[2,3-b]pyridin-3-yl)-N-(1-(3,4-dimethoxyphenyl)ethyl)acrylamide] | ≤ 50 | 500 to 1000
18 | COc1ccc([C@@H](C)NC(=O)/C(C#N)=C/c2c[nH]c3ncc(-c4cnn(Cc5ccccc5)c4)cc23)cc1OC [Example 159] | 100 to 500 | > 10000
19 | COc1ccc([C@@H](C)NC(=O)/C(C#N)=C/c2c[nH]c3ncc(-c4cn(C)nc4C)cc23)cc1OC [Example 168, (R,E)-2-cyano-N-(1-(3,4-dimethoxyphenyl)ethyl)-3-(5-(1,3-dimethyl-1H-pyrazol-4-yl)-1H-pyrrolo[2,3-b]pyridin-3-yl)acrylamide] | ≤ 50 | 1000 to 10000
20 | C[C@@H](NC(=O)/C(C#N)=C/c1c[nH]c2ncc(-c3ccc(N4CCN(C)CC4)cc3)cc12)c1ccc(F)cc1 [Example 180] | 50 to 100 | 100 to 500
21 | CN(C)CC(NC(=O)/C(C#N)=C/c1c[nH]c2ncccc12)c1ccccc1 (stereo not shown) [Example 50, (E)-2-cyano-N-(2-(dimethylamino)-1-phenylethyl)-3-(1H-pyrrolo[2,3-b]pyridin-3-yl)acrylamide] | 100 to 500 | 100 to 500
22 | COc1ccc([C@@H](C)NC(=O)/C(C#N)=C/c2c[nH]c3nccc(-c4ccc(CN5CCN(C)CC5)cc4)c23)cc1OC [Example 173, (R,E)-2-cyano-N-(1-(3,4-dimethoxyphenyl)ethyl)-3-(4-(4-((4-methylpiperazin-1-yl)methyl)phenyl)-1H-pyrrolo[2,3-b]pyridin-3-yl)acrylamide] | ≤ 50 | 1000 to 10000
23 | COc1ccc([C@@H](C)NC(=O)/C=C/c2c[nH]c3ncc(-c4cccc([S+]([O-])C(F)(F)F)c4)cc23)cc1OC (stereo partly drawn) [Example 263, (E)-N-((R)-1-(3,4-dimethoxyphenyl)ethyl)-3-(5-(3-((trifluoromethyl)sulfinyl)phenyl)-1H-pyrrolo[2,3-b]pyridin-3-yl)acrylamide] | ≤ 50 | > 10000
24 | N#C/C(=C\c1c[nH]c2ncccc12)C(=O)NCc1cccc2[nH]ncc12 [Example 45, (E)-N-((1H-indazol-4-yl)methyl)-2-cyano-3-(1H-pyrrolo[2,3-b]pyridin-3-yl)acrylamide] | 500 to 1000 | 1000 to 10000
25 | COc1ccc([C@@H](C)NC(=O)/C(C#N)=C/c2c[nH]c3ncc(-c4ccc(C#N)cc4)cc23)cc1OC [Example 139] | 50 to 100 | > 10000
26 | COc1ccc([C@@H](C)NC(=O)/C=C/c2c[nH]c3ncc(-c4cccc(N5CCN(C)CC5)c4)cc23)cc1OC [Example 185] | ≤ 50 | 1000 to 10000
